Patent US9518065B2, “IRAK inhibitors and uses thereof” (NIMBUS IRIS, INC., priority 2013, dated 2016)

What was measured:
[1] = test system: LPS induced TNF production; assay: In vivo LPS-induced cytokine production in rats; design: species or system female Lewis rats; conditions: for drug concentration corresponding to the minimal efficacious dose: 10 mg/kg PO; for minimal efficacious dose for inhibition of LPS induced TNF production in vivo: PO in 0.5% methylcellulose, LPS 2 hours after dose, serum TNF-α one hour later
Protocol: Compounds of the present invention were also assayed in vivo to determine their inhibitory effect on LPS-induced cytokine production. In vivo studies of LPS-induced cytokine production was conducted in female Lewis rats (n=10 each). Rats were dosed with compound at 30, 10, 3, or 1 mg/kg, 5 mg/kg dexamethasone, or vehicle, dosed PO in 0.5% methylcellulose. After 2 hours, rats were administered LPS in PBS at 0.1 mg/mL, 1 mL/kg. One hour later, rats were bled and serum was analyzed for TNF-α produced by ELISA (eBioscience).

IRAK4 = target: T1, IRAK4 (Homo sapiens, UniProt Q9NWZ3); assay: IRAK-4 activity inhibition assay (Caliper); type: biochemical; conditions: 3.5 nM IRAK4, 37 μM ATP, 1.5 μM Peptide 8
T1 construct: purchased CARNA Bioscience 09-145
T1 sequence (Q9NWZ3 1-460): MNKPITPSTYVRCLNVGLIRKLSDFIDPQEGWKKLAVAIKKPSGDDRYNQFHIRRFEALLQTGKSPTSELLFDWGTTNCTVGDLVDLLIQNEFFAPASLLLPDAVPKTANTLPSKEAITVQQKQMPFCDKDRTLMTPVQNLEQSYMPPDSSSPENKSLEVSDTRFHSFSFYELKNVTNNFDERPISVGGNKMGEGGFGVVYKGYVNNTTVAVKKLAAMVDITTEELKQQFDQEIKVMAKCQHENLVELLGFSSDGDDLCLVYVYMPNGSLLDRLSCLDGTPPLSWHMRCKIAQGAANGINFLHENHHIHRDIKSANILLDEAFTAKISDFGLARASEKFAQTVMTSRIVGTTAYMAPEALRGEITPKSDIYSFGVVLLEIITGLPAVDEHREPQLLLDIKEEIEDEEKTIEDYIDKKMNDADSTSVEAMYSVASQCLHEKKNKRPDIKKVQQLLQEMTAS
How it was run: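 Caliper mobility-shift assay: 3.5 nM IRAK4 preincubated 10 min with compound (10-point series, duplicates), then 1.5 μM peptide 8 and 37 μM ATP added in HEPES pH 7.5 with Mg2+/Mn2+ and DTT, 40 min at 28°C before EDTA stop. Percent inhibition from substrate conversion relative to DMSO and no-enzyme controls.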

Row | drug concentration corresponding to the minimal efficacious dose [1] [nM] | IC50 (IRAK4) [µM] | Compound | minimal efficacious dose for inhibition of LPS induced TNF production in vivo [1] [mg/kg]
1 | 1050 | ≤ 1 | CCc1nc2c(N[C@H]3CC[C@H](N4CCOCC4)CC3)nc(Nc3cnn(C4CCOCC4)c3)nc2s1 [Compound I-9, 2-ethyl-5-N-[1-(oxan-4-yl)-1H-pyrazol-4-yl]-7-N—[trans-4-(morpholin-4-yl)cyclohexyl]-[1,3]thiazolo[5,4-d]pyrimidine-5,7-diamine] | 10
2 | 1600 | ≤ 1 | CCc1nc2c(N[C@H]3CC[C@H](N4CCOCC4)CC3)nc(Nc3cnn(C)c3)nc2s1 [Compound I-7, 2-ethyl-N5-(1-methyl-1H-pyrazol-4-yl)-N7-((1r,4r)-4-morpholinocyclohexyl)-thiazolo[5,4-d]pyrimidine-5,7-diamine] | 10
3 | 6600 | ≤ 1 | 2-methyl-N5-(1-methyl-1H-pyrazol-4-yl)-N7-((1r,4r)-4-morpholinocyclohexyl)thiazolo[5,4-d]pyrimidine-5,7-diamine [Compound I-24] | 10
